# Target: T1, AgaCA (Anopheles gambiae, UniProt Q5TU56)
# T1 construct: gene 1272966; full-length beta-CA, C-terminal thrombin site and His6 tag (tag removed by thrombin), baculovirus/Sf9
# T1 sequence (Q5TU56 1-255): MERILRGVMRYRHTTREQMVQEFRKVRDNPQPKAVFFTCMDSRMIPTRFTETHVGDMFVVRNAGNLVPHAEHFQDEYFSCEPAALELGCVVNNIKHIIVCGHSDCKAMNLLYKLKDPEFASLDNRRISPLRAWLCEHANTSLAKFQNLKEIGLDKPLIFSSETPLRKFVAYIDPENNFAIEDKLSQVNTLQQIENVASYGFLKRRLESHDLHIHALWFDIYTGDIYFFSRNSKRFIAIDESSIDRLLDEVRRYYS
# Test: biochemical
# Conditions: not given
row,SMILES,Ki
1,O=P(O)(O)OP(=O)(O)O [P2O7^4−],8.52 mM
2,N#CS [SCN^−],6.41 mM
3,O=S(=O)(O)O [SO4^2−],9.03 mM

# Same assay, conditions: read-out: AgaCA^c
row,SMILES,Ki
1,N#CO [CNO^−],9.46 mM
2,S=C(S)S [CS3^2−],8.19 mM
3,Cl [Cl^−],8.74 mM
4,CCN(CC)C(=S)S [Et2NCS2^−],0.65 mM
5,F [F^−],9.42 mM
6,NS(N)(=O)=O [H2NSO2NH2],0.054 mM
7,S [HS^−],25.1 mM
8,O=NO [NO2^−],4.55 mM
9,O=[N+]([O-])O [NO3^−],6.5 mM
10,OB(O)c1ccccc1 [Ph-B(OH)2],0.047 mM
11,N#C[SeH] [SeCN^−],8.68 mM
12,O=[Se](=O)(O)O [SeO4^2−],9.41 mM
13,[O]=[Sn]([OH])[OH] [SnO3^2−],1.8 mM
14,O=[Te](=O)(O)O [TeO4^2−],4.96 mM
15,[O]=[V]([OH])([OH])[O][V](=[O])([OH])[OH] [V2O7^4−],7.98 mM

# Same assay, conditions: read-out: KI [mM]^e / hCA I^a
row,SMILES,Ki
1,NS(=O)(=O)O [H2NSO3H],0.021 mM

# — article PMC6009871, “Anion inhibition studies of a beta carbonic anhydrase from the malaria mosquito Anopheles gambiae” (Journal of Enzyme Inhibition and Medicinal Chemistry, 2018)
